The target of assay [1] is Cyclin-dependent kinase 2/cyclin A (Homo sapiens, UniProt P24941). Description: In vitro inhibitory concentration against cyclin-dependent kinase 2-cyclin A complex using ATP/P33gamma-ATP mix as radioligand. In kind it is protein-complex assay.
Another assay deals with A2780. The experiment in a line: Antiproliferative activity against human A2780 cells. In kind it is functional, cell-based.

Each structure is given as a SMILES string. Some results are limits rather than exact numbers.

As for `COc1ccc(C(=O)Nc2cc(C3CC3)[nH]n2)cc1`, the IC50 in assay [1] came to 705 nM.

With `O=C(Nc1cc(C2CCC2)[nH]n1)c1ccc(Br)cc1`, the half-maximal inhibitory concentration (IC50) in assay [1] is 90 nM. This IC50 is about 7.8-fold lower than that of the compound before.

For the compound `NC(=O)c1ccc(-c2ccc(CC(=O)Nc3cc(C4CC4)[nH]n3)cc2)cc1`, the IC50 in the assay with A2780 came out at 1470 nM; in assay [1], 4 nM.

In turn, `CCC(C)c1cc(NC(=O)c2ccc(Br)cc2)[nH]n1` (stereo not given) came in with an IC50 in assay [1] above 10000 nM.

Consider `O=C(Cc1ccc(-c2ccc(C(=O)O)cc2)cc1)Nc1cc(C2CC2)[nH]n1`, for which the IC50 is above 20000 nM in the assay on A2780 and 11 nM in assay [1].

Regarding `O=C(Nc1cc(-c2ccccc2)[nH]n1)c1ccc(Br)cc1`, the IC50 in assay [1] was above 10000 nM.

`CCCc1cc(NC(=O)c2ccc(Br)cc2)n[nH]1` registered a concentration for half-maximal inhibition (IC50) in assay [1] of 650 nM.

On to `O=C(Cc1ccc(-c2cccc(F)c2)cc1)Nc1cc(C2CC2)[nH]n1`, for which the IC50 in the assay with A2780 is 182 nM; in assay [1] it was 4 nM.

As to `Cc1cccc(-c2ccc(CC(=O)Nc3cc(C4CC4)[nH]n3)cc2)c1`, the values for the IC50 (in the assay on A2780; in assay [1]) were 205 nM and 9 nM, respectively.

In the case of `O=C(Cc1ccccc1)Nc1cc(C2CC2)[nH]n1`, the half-maximal inhibitory concentration (IC50) came to 1400 nM in the assay on A2780 and 48 nM in assay [1].

`COc1cccc(CC(=O)Nc2cc(C3CC3)[nH]n2)c1` displayed an IC50 in the assay on A2780 above 20000 nM.

Turning to `Cc1cc(NC(=O)c2ccccc2)n[nH]1`, the IC50 in assay [1] stood at 1500 nM.

Regarding `CCCC(=O)Nc1cc(C)[nH]n1`, the IC50 in assay [1] is above 10000 nM.

Turning to `O=C(Nc1cc(C2CC2)[nH]n1)c1ccc(Br)cc1`, in assay [1], the IC50 came out at 34 nM.

In turn, `O=C(Cc1ccc(-c2ccccc2)cc1)Nc1cc(C2CC2)[nH]n1` displayed a concentration for half-maximal inhibition (IC50) with A2780 of 111 nM.

For the compound `O=C(Nc1cc(C2CC2)[nH]n1)c1ccc(Cl)c(Cl)c1`, in assay [1], the IC50 is 83 nM. This counts as double-digit nanomolar.

`COc1ccccc1C(=O)Nc1cc(C2CC2)[nH]n1`: in assay [1], the IC50 is above 10000 nM.

The compound `O=C(Cc1ccc(OCCN2CCCC2)cc1)Nc1cc(C2CC2)[nH]n1` gave a half-inhibitory concentration (IC50) in the assay on A2780 of 6980 nM.

In assay [1], `CC(C)(C)c1cc(NC(=O)c2ccc(Br)cc2)n[nH]1` came in with an IC50 above 10000 nM.

Turning to `NC(=O)c1ccc(CC(=O)Nc2cc(C3CC3)[nH]n2)cc1`, the results for the IC50 (in the assay with A2780; in assay [1]) were 2840 nM and 74 nM, respectively.

Turning to `O=C(Nc1cc(C2CC2)[nH]n1)c1cccc(Cl)c1`, in assay [1], the IC50 came out at 1000 nM.

In the assay on A2780, `O=C(Cc1cccc2ccccc12)Nc1cc(C2CC2)[nH]n1` yielded an IC50 of 900 nM.

On to `O=C(Nc1cc(C2CC2)[nH]n1)c1c(Cl)cccc1Cl`, for which the IC50 in assay [1] was above 10000 nM.

In assay [1], `O=C(Nc1cc(C2CCCCC2)[nH]n1)c1ccc(Br)cc1` displayed an IC50 of 1000 nM. This counts as single-digit micromolar.

Consider `O=C(Nc1cc(C2CC2)[nH]n1)c1cccc(C(F)(F)F)c1`, for which, in assay [1], the IC50 was determined as 500 nM.

Consider `O=C(Nc1cc(C2CCCC2)[nH]n1)c1ccc(Br)cc1`, for which the IC50 in assay [1] is 50 nM. Compared with the last compound, the IC50 is about 10-fold lower.

In turn, `COc1cccc(C(=O)Nc2cc(C3CC3)n[nH]2)c1` registered an IC50 in assay [1] of 600 nM.

`O=C(Nc1cc(Cc2ccccc2)[nH]n1)c1ccc(Br)cc1` displayed an IC50 in assay [1] above 10000 nM.

The compound `CC(C)c1cc(NC(=O)c2ccc(Br)cc2)n[nH]1` had an IC50 in assay [1] of 200 nM.

The values are drawn from ChEMBL document CHEMBL1148336, “3-Aminopyrazole inhibitors of CDK2/cyclin A as antitumor agents. 1. Lead finding” (J Med Chem, 2004).
